In US20060182775A1, “Insect repellent” (priority 2005, published 2006):

Experiments:
[1] = cited from earlier work
[2] = human, in vivo

Compound | absorption through the skin ([1]; in vivo) | effect on the nervous system ([1]; in vivo) | seizures and death ([1]; some individuals) | burning and/or irritation of skin [2]
CCN(CC)C(=O)c1cccc(C)c1 [DEET, n,n-diethyl-m-toluamide] | readily absorbed through the skin and enters into the blood stream | adversely affect the nervous system | caused seizures and even death in some individuals | 
citronella oil |  |  |  | caused burning and/or irritation
